Laboratory results as given in patent US20180214428A1, “3-(1H-INDOL-2-YL)-1H-PYRAZOLO[3,4-B]PYRIDINES AND THERAPEUTIC USES THEREOF” (Samumed, LLC, priority 2015, published 2018).
pEC50: −log10 of the molar value.

What was measured:
SW480 colon cancer cells = assay: Cell viability assay (CellTiter-Blue) in SW480 colon cancer cells; assay type: cell-based, human; details: Homo sapiens; for pEC50: 96 h, four days, CellTiter-Blue; for inhibition at 10 µM: given for EC50 of >10 μM, read-out: percent inhibition at 10 μM
Outline: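 SW480 cells (~2×10^3 per well) were exposed to compound for four days at 37 °C/5% CO2, using 8-point 1:3 dilutions from 10 μM to 0.0045 μM in duplicate. Viability was read by resazurin reduction (CellTiter-Blue, ~3 h, Ex 560/Em 590 nm). EC50 came from non-linear regression; above 10 μM, percent inhibition at 10 μM is given.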

[1] = test system: primary human mesenchymal stem cells (hMSCs); assay: Induction of chondrogenesis in primary human mesenchymal stem cells; assay type: cell-based; details: Homo sapiens, Mesenchymal stem cells, 144 h, 6 days; for Emax: chondrogenic nodules, TGF-β3 (10 ng/mL) positive control, read-out: Max. Activity as % TGF-β3 activity; for EC50: concentration required to induce 50% levels of chondrogenesis vs TGF-β3, read-out: Conc (nM) of 50% TGF-β3 activity
Description: Representative compounds were screened using primary human mesenchymal stem cells (hMSCs) to determine their ability to induce chondrogenesis (process by which cartilage is developed).
Primary human mesenchymal stem cells (hMSCs) were purchased from Lonza (Walkersville, Md.) and expanded in Mesenchymal Stem Cell Growth Media (Lonza). Cells between passage 3 and 6 were used for the experiments.
Each compound was dissolved in DMSO as a 10 mM stock and used to prepare compound source plates. Serial dilution (1:3, 6-point dose-response curves from 2700 nM to 10 nM) and compound transfer was performed using the ECHO 550 (Labcyte, Sunnyvale, Calif.) into 96-well clear bottom assay plates (Greiner Bio-One) with appropriate DMSO backfill for a final DMSO concentration of 0.03%. hMSCs were plated at 20,000 cells/well in 250 μL/well Incomplete Chondrogenic Induction Medium (Lonza; DMEM, dexamethasone, ascorbate, insulin-transferrin-selenium [ITS supplement], gentamycin-amphotericin [GA-1000], sodium pyruvate, proline and L-glutamine). TGF-β3 (10 ng/mL) was used as a positive control for differentiation while negative control wells were treated with 75 nL DMSO for normalization and calculating EC50 values. Cells were incubated at 37° C. and 5% CO2 for 6 days. To image chondrogenic nodules, the cells were fixed using 4% formaldehyde (Electron Microscopy Sciences), and stained with 2 μg/mL Rhodamine B (Sigma-Aldrich) and 20 μM Nile Red (Sigma-Aldrich) [Johnson K., et. al, A Stem Cell-Based Approach to Cartilage Repair, Science, (2012). 336(6082), 717-721]. The nodules imaged (4 images per well at 4× magnification) by excitation at 531 nm and emission at 625 nm and quantified using the CellInsight CX5 (Thermo Scientific). Number of nodules in each well was normalized to the average of 3 DMSO treated wells on the same plate using Excel (Microsoft Inc.). The normalized averages (fold change over DMSO) of 3 replicate wells for each compound concentration were calculated. Due to solubility limitations of some of the compounds, curve fitting was incomplete leading to inaccurate EC50 determinations.
Using TGF-β3 as a positive control, the concentration of representative compounds required to induce 50% levels of chondrogenesis is reported. In addition, the maximum activity of each compound and the respective dose that each compound reached maximum chondrogenesis activity is reported.

[2] = test system: Wnt activity (Sp5-Luc reporter gene, SW480 colon carcinoma cells); assay: Screening assay for Wnt activity: Sp5-Luc reporter gene assay in SW480 cells; assay type: cell-based, human; details: Homo sapiens; for pEC50: overnight incubation; for inhibition at 10 µM: given for EC50 of >10 μM, read-out: percent inhibition at 10 μM
Outline: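 SW480 cells stably transduced with a luciferase reporter driven by an Sp5 promoter of eight TCF/LEF sites were plated at 4,000 cells/well in 1% FBS medium. They were exposed overnight at 37° C to a 10-point 1:3 dilution series from 10 μM (0.1% DMSO). Luminescence was normalized to DMSO for four-parameter EC50, or percent inhibition at 10 μM.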

SMILES | pEC50 (SW480 colon cancer cells) | pEC50 [2] | EC50 [1] [nM] | Emax [1] [%] | inhibition at 10 µM (SW480 colon cancer cells) [%] | inhibition at 10 µM [2] [%]
CN(C)c1cncc(-c2cnc3[nH]nc(-c4cc5c(-c6cccc(F)c6)cccc5[nH]4)c3c2)c1 [Compound 5, 5-(3-(4-(3-Fluorophenyl)-1H-indol-2-yl)-1H-pyrazolo[3,4-b]pyridin-5-yl)-N,N-dimethylpyridin-3-amine] | 5.59 | 6.17 | – | 49 | – | –
Fc1ccc(-c2cccc3[nH]c(-c4n[nH]c5ncc(-c6cncc(CN7CCCCC7)c6)cc45)cc23)cc1 [Compound 36, 3-(4-(4-Fluorophenyl)-1H-indol-2-yl)-5-(5-(piperidin-1-ylmethyl)pyridin-3-yl)-1H-pyrazolo[3,4-b]pyridine] | < 5.00 | 5.44 | 10 | 67 | 59.2 | –
Nc1cncc(-c2cnc3[nH]nc(-c4cc5c(-c6ccccc6F)cccc5[nH]4)c3c2)c1 [Compound 49, 5-(3-(4-(2-Fluorophenyl)-1H-indol-2-yl)-1H-pyrazolo[3,4-b]pyridin-5-yl) pyridin-3-amine] | 6.23 | 7.00 | – | 134 | – | –
CCNCc1cncc(-c2cnc3[nH]nc(-c4cc5c(-c6ccccc6F)cccc5[nH]4)c3c2)c1 [Compound 52, N-((5-(3-(4-(2-Fluorophenyl)-1H-indol-2-yl)-1H-pyrazolo[3,4-b]pyridin-5-yl)pyridin-3-yl)methyl)ethanamine] | 5.57 | 5.23 | – | 64 | – | –
c1cncc(-c2cnc3[nH]nc(-c4cc5c(-c6cccnc6)cccc5[nH]4)c3c2)c1 [Compound 74, 5-(Pyridin-3-yl)-3-(4-(pyridin-3-yl)-1H-indol-2-yl)-1H-pyrazolo[3,4-b]pyridine] | 5.45 | 6.24 | – | 29 | – | –
CC(C)(C)C(=O)Nc1cncc(-c2cnc3[nH]nc(-c4cc5c(-c6cccnc6)cccc5[nH]4)c3c2)c1 [Compound 78, N-(5-(3-(4-(Pyridin-3-yl)-1H-indol-2-yl)-1H-pyrazolo[3,4-b]pyridin-5-yl)pyridin-3-yl)pivalamide] | 5.76 | 6.20 | 300 | 232 | – | –
CC(C)Nc1cncc(-c2cnc3[nH]nc(-c4cc5c(-c6cccnc6)cccc5[nH]4)c3c2)c1 [Compound 81, N-Isopropyl-5-(3-(4-(pyridin-3-yl)-1H-indol-2-yl)-1H-pyrazolo[3,4-b]pyridin-5-yl)pyridin-3-amine] | 5.43 | 6.35 | 10 | 264 | – | –
c1cncc(-c2cccc3[nH]c(-c4n[nH]c5ncc(-c6cncc(CN7CCCCC7)c6)cc45)cc23)c1 [Compound 84, 5-(5-(Piperidin-1-ylmethyl)pyridin-3-yl)-3-(4-(pyridin-3-yl)-1H-indol-2-yl)-1H-pyrazolo[3,4-b]pyridine] | 5.07 | < 5.00 | 900 | 82 | – | 48.5
CC(C)(C)C(=O)Nc1cncc(-c2cnc3[nH]nc(-c4cc5c(-c6ccoc6)cccc5[nH]4)c3c2)c1 [Compound 290, N-(5-(3-(4-(Furan-3-yl)-1H-indol-2-yl)-1H-pyrazolo[3,4-b]pyridin-5-yl)pyridin-3-yl)pivalamide] | < 5.00 | < 5.00 | – | – | 35.1 | 53
CS(=O)(=O)NCc1cc(F)cc(-c2cccc3[nH]c(-c4n[nH]c5ncc(-c6ccccn6)cc45)cc23)c1 [Compound 478, N-(3-Fluoro-5-(2-(5-(pyridin-2-yl)-1H-pyrazolo[3,4-b]pyridin-3-yl)-1H-indol-4-yl)benzyl)methanesulfonamide] | < 5.00 | 5.41 | – | – | 22.6 | –
c1ccc(CNCc2cncc(-c3cnc4[nH]nc(-c5cc6ncccc6[nH]5)c4c3)c2)cc1 [Compound 502, 1-(5-(3-(1H-Pyrrolo[3,2-b]pyridin-2-yl)-1H-pyrazolo[3,4-b]pyridin-5-yl)pyridin-3-yl)-N-benzylmethanamine] | < 5.00 | 5.40 | – | – | 9.8 | –
FC1(F)CCN(Cc2cncc(-c3cnc4[nH]nc(-c5cc6ncccc6[nH]5)c4c3)c2)C1 [Compound 504, 5-(5-((3,3-Difluoropyrrolidin-1-yl)methyl)pyridin-3-yl)-3-(1H-pyrrolo[3,2-b]pyridin-2-yl)-1H-pyrazolo[3,4-b]pyridine] | 6.95 | < 5.00 | – | – | – | 42.4
Oc1cncc(-c2cnc3[nH]nc(-c4cc5c(-c6cccs6)cccc5[nH]4)c3c2)c1 [Compound 711, 5-(3-(4-(Thiophen-2-yl)-1H-indol-2-yl)-1H-pyrazolo[3,4-b]pyridin-5-yl) pyridin-3-ol] | < 5.00 | 5.01 | – | – | 10.3 | –
c1ccc(COc2cncc(-c3cnc4[nH]nc(-c5cc6ncccc6[nH]5)c4c3)c2)cc1 [Compound 1006, 5-(5-(Benzyloxy)pyridin-3-yl)-3-(1H-pyrrolo[3,2-b]pyridin-2-yl)-1H-pyrazolo[3,4-b]pyridine] | 5.84 | 6.15 | – | – | – | –

Further lines, with some results ahead:

pEC50 (SW480 colon cancer cells) | pEC50 [2] | EC50 [1] [nM] | SMILES | Emax [1] [%] | inhibition at 10 µM (SW480 colon cancer cells) [%] | inhibition at 10 µM [2] [%]
5.32 | 5.64 | 10 | Fc1ccc(-c2cccc3[nH]c(-c4n[nH]c5ncc(-c6cncc(CN7CCCC7)c6)cc45)cc23)cc1 [Compound 35, 3-(4-(4-Fluorophenyl)-1H-indol-2-yl)-5-(5-(pyrrolidin-1-ylmethyl)pyridin-3-yl)-1H-pyrazolo[3,4-b]pyridine] | 160 | – | –
< 5.00 | 5.56 | 10 | Fc1ccc(-c2cccc3[nH]c(-c4n[nH]c5ncc(-c6cncnc6)cc45)cc23)cc1 [Compound 47, 3-(4-(4-Fluorophenyl)-1H-indol-2-yl)-5-(pyrimidin-5-yl)-1H-pyrazolo[3,4-b]pyridine] | 135 | 11.8 | –
< 5.00 | 5.64 | – | O=C(Nc1cncc(-c2cnc3[nH]nc(-c4cc5ccccc5[nH]4)c3c2)c1)C1CCCCC1 [Compound 249, N-(5-(3-(1H-Indol-2-yl)-1H-pyrazolo[3,4-b]pyridin-5-yl)pyridin-3-yl) cyclohexanecarboxamide] | – | 6.7 | –
< 5.00 | < 5.00 | – | c1ccc(CNCc2cncc(-c3cnc4[nH]nc(-c5cc6ccccc6[nH]5)c4c3)c2)cc1 [Compound 250, 1-(5-(3-(1H-Indol-2-yl)-1H-pyrazolo[3,4-b]pyridin-5-yl)pyridin-3-yl)-N-benzylmethanamine] | – | 12.2 | 50.9
< 5.00 | 6.52 | – | Cc1ccncc1-c1cnc2[nH]nc(-c3cc4c(-c5cc(F)cc(CNS(C)(=O)=O)c5)cccc4[nH]3)c2c1 [Compound 455, N-(3-Fluoro-5-(2-(5-(4-methylpyridin-3-yl)-1H-pyrazolo[3,4-b]pyridin-3-yl)-1H-indol-4-yl)benzyl)methanesulfonamide] | – | 8.7 | –
< 5.00 | < 5.00 | – | Fc1cccc(-c2cccc3[nH]c(-c4n[nH]c5ncc(-c6cncc(OCc7ccccc7)c6)cc45)cc23)c1 [Compound 520, 5-(5-(Benzyloxy)pyridin-3-yl)-3-(4-(3-fluorophenyl)-1H-indol-2-yl)-1H-pyrazolo[3,4-b]pyridine] | – | 13.3 | 18.2
< 5.00 | < 5.00 | – | Fc1ccccc1-c1cccc2[nH]c(-c3n[nH]c4ncc(C5CCNCC5)cc34)cc12 [Compound 539, 3-(4-(2-Fluorophenyl)-1H-indol-2-yl)-5-(piperidin-4-yl)-1H-pyrazolo[3,4-b]pyridine] | – | 51.5 | 47.2
